US20070134744A1, “Epothilone resistant cell lines” (priority 2000, published 2007)

Experiments:
[1] = test system: EA10 cells; assay: MTS growth inhibition assay; type: cell-based
Method: (§1) Growth inhibition may be analyzed using conventional methods, for example a MTS assay (PROMEGA, Wis.) may be used. In this assay approximately 4000 cells per well are seeded in 96 well plates in MEM supplemented with 10% fetal calf serum and incubated at 37° C. in 5.0% CO2. After 24 hours, dilutions of drug (concentration range used is between 1 nM and 1000 nM) are added and cells are allowed to incubate with drug for an additional 72 hours. The MTS reagent mixed with PMS (MTS:PMS 20:1 according to manufacturer's instructions) is then added and absorbance quantitated using a Thermomax microplate reader system according to conventional methods (Molecular Devices, Sunnyvale, Calif.). […] Six assays per drug per plate are performed.
(§2) Thus, at least two potential mechanisms of epothilone A resistance may exist—a lower resistance mechanism that is cross-resistant to TAXOL® and a higher, epothilone A specific resistance mechanism.

[2] = test system: EA150 cells; assay: MTS growth inhibition assay; type: cell-based
Method: as §1, §2

[3] = test system: EA20 cells; assay: MTS growth inhibition assay; type: cell-based
Method: as §1, §2

[4] = test system: EA60 cells; assay: MTS growth inhibition assay; type: cell-based
Method: as §1, §2

[5] = test system: MDA-MB-435 cells; assay: MTS growth inhibition assay; type: cell-based; settings: MTS, 72 hours drug, Table 1
Method: as §1, §2

[6] = test system: 297/C5/0 cells; type: cell-based, human; settings: 297/C5/0 (EpoA selected), 72 hrs, average of three experiments
Method: (§3) Anti-proliferative assays are performed basically as described (Meyer et al., Int. J. Cancer 43:851 (1989)). Briefly, cells are seeded at 1.5×10^3 cells/well into 96-well microtiter plates and allowed to adhere by incubation overnight. Compounds are added in serial dilutions on day 1. The plates are then incubated for an additional 3 days, after which the cells are fixed with 3.3% v/v glutaraldehyde, washed with water and stained with 0.05% w/v methylene blue according to conventional methods. After washing, the dye is eluted with 3% HCl and the optical density measured at 665 nm with a SpectraMax Plus (Molecular Devices, Sunnyvale, Calif.) according to manufacturers instructions. IC50 values are determined by mathematical curve-fitting using the SoftPro2.6.1 program (Molecular Devices, Sunnyvale, Calif.) using the formula (OD treated−OD start)/(OD control−OD start)×100. […] IC50 determinations with the cell line 298/D4/40 are performed in the presence of 40 nM epothilone A.
(§4) Data in Table 4 are gathered according to the following methods: Cells (1×10^3) are seeded in 96-well plates and allowed to adhere for 24 hrs. Compounds are then added as two-fold serial dilutions and incubation continued for an additional 72 hrs. Cell numbers at the beginning and at the end of the experiment are estimated by methylene blue staining of cellular protein mass according to conventional methods. The net mass increase of vehicle-treated cells is set as 100% growth. The IC50 is determined as the drug concentration that leads to half-maximal growth inhibition compared to the control. The resistance factor (RF) for a particular drug is calculated by dividing the IC50 determined on the resistant cell line by that determined on the parental KB-31 cells. Data are presented as average±standard deviation (SD) of three separate experiments, except na=not applicable (n<3). Colchicine-selected KB-8511 cells overexpressing P-glycoprotein served as a reference for the classical multi-drug-resistant phenotype.

[7] = test system: 298/D4/40 cells; type: cell-based, human; settings: 298/D4/40 (EpoA selected), 72 hrs, in the presence of 40 nM epothilone A
Method: as §3, §4

[8] = test system: 315/sc5.9 cells; type: cell-based, human
Method: as §3, §4

[9] = target: T1, tubulin in 297/C5/0 cell lysates (Homo sapiens, UniProt P07437, T274P); assay: Cell-free tubulin polymerization assay; type: biochemical; settings: 297/C5/0 lysates, 5 min 37° C., 0-100 μM, vs KB-31
T1 construct: endogenous in cells; host or cells: 297/C5/0 and 298/D4/40 sublines of KB-31 (intact cells or hypotonic lysates)
Method: (§5) For the assessment of drug effects on the ratio between unpolymerized and polymerized tubulin in a cell-free system, cells are lysed at the time of drug addition and processed as follows. Cells are seeded and incubated for 18-24 hrs as described above. One plate at a time is then transferred to a dimmed tissue-culture hood and cells are washed twice with 1 ml of room temperature PBS/O. After careful removal of remaining PBS/O, 200 μl of room-temperature HLB/A containing test substances at the desired concentration is added to the cells. Final vehicle concentration is 1%. The plates are wrapped in aluminum foil and incubated for 5 min at 37° C. Lysates are then transferred to eppendorf tubes, vortexed for 5 seconds, followed by centrifugation for 30 minutes at room-temperature in a table-top centrifuge at 12′000×g. Further processing of the samples is performed as described above.
(§6) However, it was not clear from this experiment whether the decrease in epothilone A-mediated tubulin polymerization is due to decreased drug uptake or a genuine defect in tubulin functionality. To address this question, cells are lysed before incubation with epothilone A. Specifically, KB-31, 297/C5/0 and 298/D4/40 cells (2×10^5) are separately seeded in 6-well plates and allowed to adhere for 24 hrs. Cells are then lysed in hypotonic buffer containing 0, 1, 10 or 100 μM epothilone A. Vehicle (DMSO) concentration was 1%. Following incubation for 5 min at 37° C., samples are centrifuged to separate soluble from polymerized tubulin and the levels of unpolymerized tubulin is assessed by Western blotting as described above.

[10] = target: T2, tubulin in 298/D4/40 cell lysates (Homo sapiens, UniProt P07437, T274P); assay: Cell-free tubulin polymerization assay; type: biochemical; settings: 298/D4/40 lysates, 5 min 37° C., 0-100 μM
T2 construct: endogenous in cells; host or cells: 297/C5/0 and 298/D4/40 sublines of KB-31 (intact cells or hypotonic lysates)
Method: as §5, §6

[11] = target: T3, tubulin in KB-31 cell lysates (Homo sapiens, UniProt P07437); assay: Cell-free tubulin polymerization assay; type: biochemical; settings: KB-31 lysates, 5 min 37° C., 0-100 μM
T3 construct: decrease in the unpolymerized pool of tubulin in KB-31 cell lysates; endogenous in cells; host or cells: KB-31 human epidermoid carcinoma cells (intact cells or hypotonic lysates)
Method: as §5, §6

T3 sequence (P68363 whole entry): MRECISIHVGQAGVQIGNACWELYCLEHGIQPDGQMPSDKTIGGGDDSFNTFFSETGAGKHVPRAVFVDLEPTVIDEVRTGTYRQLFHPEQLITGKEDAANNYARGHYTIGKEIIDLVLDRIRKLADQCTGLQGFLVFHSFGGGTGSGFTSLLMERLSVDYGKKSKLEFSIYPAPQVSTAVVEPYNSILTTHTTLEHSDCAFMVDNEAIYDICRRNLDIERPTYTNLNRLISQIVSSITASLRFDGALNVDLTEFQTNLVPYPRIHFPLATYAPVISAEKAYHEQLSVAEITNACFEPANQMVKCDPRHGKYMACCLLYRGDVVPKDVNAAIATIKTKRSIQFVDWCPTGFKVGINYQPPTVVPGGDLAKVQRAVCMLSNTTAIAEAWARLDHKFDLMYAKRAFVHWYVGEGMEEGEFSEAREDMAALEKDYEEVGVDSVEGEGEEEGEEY
T3 sequence (P07437 whole entry): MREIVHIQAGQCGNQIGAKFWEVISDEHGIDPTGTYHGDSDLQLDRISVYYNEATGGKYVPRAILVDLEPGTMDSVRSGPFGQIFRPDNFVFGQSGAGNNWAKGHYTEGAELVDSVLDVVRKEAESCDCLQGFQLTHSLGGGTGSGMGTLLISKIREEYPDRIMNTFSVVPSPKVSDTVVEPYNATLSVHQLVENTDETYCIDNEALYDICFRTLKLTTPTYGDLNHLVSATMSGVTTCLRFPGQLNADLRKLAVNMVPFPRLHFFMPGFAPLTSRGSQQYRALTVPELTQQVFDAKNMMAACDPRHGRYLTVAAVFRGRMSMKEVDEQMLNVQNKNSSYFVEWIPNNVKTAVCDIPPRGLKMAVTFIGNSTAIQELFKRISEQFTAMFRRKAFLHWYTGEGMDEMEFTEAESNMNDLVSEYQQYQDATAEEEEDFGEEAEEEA
T1 sequence (P07437 whole entry T274P): as the sequence (P07437 whole entry) above, with T274P counted along it
T1 sequence (P68363 whole entry partner): as the sequence (P68363 whole entry) above
T2 sequence (P07437 whole entry T274P): as the sequence (P07437 whole entry) above, with T274P counted along it
T2 sequence (P68363 whole entry partner): as the sequence (P68363 whole entry) above

## C/C(=C\c1csc(C)n1)[C@@H]1C[C@@H]2O[C@@H]2CCC[C@H](C)[C@H](O)[C@@H](C)C(=O)C(C)(C)[C@@H](O)CC(=O)O1 [Epothilone A, epothilone A]
[1]
  increase in IC50 over MDA-MB-435 cells: 5 fold
[1]; MTS, 72 hours drug, Table 1
  IC50: 18 ± 3.8 nM
[2]
  increase in IC50 over MDA-MB-435 cells: > 100 fold
[2]; MTS, 72 hours drug, Table 1
  IC50: > 500 nM
[3]
  increase in IC50 over MDA-MB-435 cells: 7 fold
[3]; MTS, 72 hours drug, Table 1
  IC50: 28 ± 3 nM
[4]
  increase in IC50 over MDA-MB-435 cells: 15 fold
[4]; MTS, 72 hours drug, Table 1
  IC50: 82 ± 1.5 nM
[5]
  IC50: 4 ± 1.8 nM
[6]
  RF (resistance factor: IC50 resistant cell line / IC50 parental KB-31): 44.7
[7]
  RF (resistance factor: IC50 resistant cell line / IC50 parental KB-31): 71.4
[8]; 315/sc5.9 (EpoB selected), 72 hrs, average of three experiments
  RF (resistance factor: IC50 resistant cell line / IC50 parental KB-31): 1.2
[8]; 315/sc5.9 vs parental KB-31
  resistance profile in words: marginal cross-resistance
[9]
  dose-response curve for unpolymerized tubulin in cell lysates: shifted to higher concentrations
[10]
  changes in unpolymerized tubulin in cell lysates: completely refractory
[11]
  unpolymerized tubulin in cell lysates: dose-dependent decrease in the unpolymerized pool of tubulin
